Measurements as given in patent EP0327492A1, “Herbicidally and plantgrowth regulatory active quinoline and pyrindine compounds” (CIBA-GEIGY AG, priority 1988, dated 1989).

Key:
Format in all cases: in vivo
Veronica Sp. [1] = assay: Post-emergent herbicidal action, contact herbicide (B.3); conditions: 500 bis 2000 [g/ha], 15 days after treatment
How it was run: (§1)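 Weeds at the 4- to 6-leaf stage were sprayed post-emergence with an aqueous dispersion of active ingredient at 2000-500 g a.i./ha. Plants were held at 24-26 °C and 45-60% relative humidity. Damage was scored 15 days after treatment on a 1-9 scale, from 1 (dead) to 9 (growth like untreated plants).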

Solanum nigrum [2] = assay: as above; conditions: 500 bis 2000 [g/ha], 15 days after treatment
How it was run: as §1

Sinapis [3] = assay: as above; conditions: 500 bis 2000 [g/ha], 15 days after treatment
How it was run: as §1

Stellaria [4] = assay: as above; conditions: 500 bis 2000 [g/ha], 15 days after treatment
How it was run: as §1

Lolium perenne [5] = assay: as above; conditions: 500 bis 2000 [g/ha], 15 days after treatment
How it was run: as §1

Avena fatua [6] = assay: as above; conditions: 500 bis 2000 [g/ha], 15 days after treatment
How it was run: as §1

Galium aparine [7] = assay: as above; conditions: 500 bis 2000 [g/ha], 15 days after treatment
How it was run: as §1

Chenopodium Sp. [8] = assay: as above; conditions: 500 bis 2000 [g/ha], 15 days after treatment
How it was run: as §1

Alopecurus myos. [9] = assay: as above; conditions: 500 bis 2000 [g/ha], 15 days after treatment
How it was run: as §1

Echinochloa crus galli [10] = assay: as above; conditions: 500 bis 2000 [g/ha], 15 days after treatment
How it was run: as §1

Xanthium Sp. = assay: as above; conditions: 500 bis 2000 [g/ha], 15 days after treatment
How it was run: as §1

Bromus tectorum [11] = assay: as above; conditions: 500 bis 2000 [g/ha], 15 days after treatment
How it was run: as §1

Sorghum halep. [12] = assay: as above; conditions: 500 bis 2000 [g/ha], 15 days after treatment
How it was run: as §1

Amaranthus ret. [13] = assay: as above; conditions: 500 bis 2000 [g/ha], 15 days after treatment
How it was run: as §1

Digitaria sang. [14] = assay: as above; conditions: 500 bis 2000 [g/ha], 15 days after treatment
How it was run: as §1

Abutilon [15] = assay: as above; conditions: 500 bis 2000 [g/ha], 15 days after treatment
How it was run: as §1

Chrysanthe. leuc. [16] = assay: as above; conditions: 500 bis 2000 [g/ha], 15 days after treatment
How it was run: as §1

Baumwolle = assay: Post-emergent herbicidal action (B.3), crop tolerance; conditions: 500 bis 2000 [g/ha], 15 days after treatment
Procedure: (§2) Im Gewächshaus wird unmittelbar nach der Einsaat der Versuchspflanzen in Saatschalen die Erdoberfläche mit einer wässrigen Dispersion der Wirkstoffe, erhalten aus einem 25 %igen Emulsionskonzentrat behandelt. Es werden Konzentrationen von 2000-500 g Wirksubstanz/Hektar angewendet. Die Saatschalen werden im Gewächshaus bei 22-25° C und 50-70 % relativer Luftfeuchtigkeit gehalten und der Versuch nach 3 Wochen ausgewertet und die Resultate nach folgender Notenskala ausgewertet. • 1 Pflanze hat nicht gekeimt oder ist eingegangen • 2-3 sehr starke Schäden • 4 starke Schäden • 5 mittlere Schäden, die Pflanzen sind verkümmert • 6 Schäden, die Pflanze kann regenerieren • 7-8 leichte Schäden • 9 normales Wachstum, wie das unbehandelter Pflanzen
(§3) Boniturnoten von 1 bis 4 (insbesondere von 1 bis 3) weisen auf eine gute bis sehr gute Herbizidwirkung hin. Boniturnoten von 6 bis 9 (insbesondere 7 bis 9) weisen auf eine gute Toleranz (insbesondere bei Kulturpflanzen) hin.
(§4) Eine Anzahl Unkräuter, sowohl monokotyle wie dikotyle, werden nach dem Auflaufen (im 4- bis 6-Blattstadium) mit einer wässrigen Wirkstoffdispersion in einer Dosierung von 2000-500 g Wirksubstanz pro Hektar auf die Pflanzen gespritzt und diese bei 24°-26°C und 45-60 % relativer Luftfeuchtigkeit gehalten. 15 Tage nach der Behandlung wird der Versuch nach dem in Beispiel B.2. gegebenen Massstab bewertet.

Soja [17] = assay: as above; conditions: 500 bis 2000 [g/ha], 15 days after treatment
Procedure: as §2, §3, §4

Soja [18] = assay: Pre-emergent herbicidal action (B.2), crop tolerance; conditions: 500 bis 2000 [g/ha], evaluated after 3 weeks
Procedure: as §2, §3

Veronica Sp. [19] = assay: Pre-emergent herbicidal action (B.2); conditions: 500 bis 2000 [g/ha], evaluated after 3 weeks
Procedure: as §2, §3

Ipomoea = assay: Pre-emergent herbicidal action (B.2); conditions: 500 bis 2000 [g/ha], evaluated after 3 weeks
Procedure: as §2, §3

Solanum nigrum [20] = assay: Pre-emergent herbicidal action (B.2); conditions: 500 bis 2000 [g/ha], evaluated after 3 weeks
Procedure: as §2, §3

Sinapis [21] = assay: Pre-emergent herbicidal action (B.2); conditions: 500 bis 2000 [g/ha], evaluated after 3 weeks
Procedure: as §2, §3

Stellaria [22] = assay: Pre-emergent herbicidal action (B.2); conditions: 500 bis 2000 [g/ha], evaluated after 3 weeks
Procedure: as §2, §3

Lolium perenne [23] = assay: Pre-emergent herbicidal action (B.2); conditions: 500 bis 2000 [g/ha], evaluated after 3 weeks
Procedure: as §2, §3

Avena fatua [24] = assay: Pre-emergent herbicidal action (B.2); conditions: 500 bis 2000 [g/ha], evaluated after 3 weeks
Procedure: as §2, §3

Galium aparine [25] = assay: Pre-emergent herbicidal action (B.2); conditions: 500 bis 2000 [g/ha], evaluated after 3 weeks
Procedure: as §2, §3

Chenopodium Sp. [26] = assay: Pre-emergent herbicidal action (B.2); conditions: 500 bis 2000 [g/ha], evaluated after 3 weeks
Procedure: as §2, §3

Alopecurus myos. [27] = assay: Pre-emergent herbicidal action (B.2); conditions: 500 bis 2000 [g/ha], evaluated after 3 weeks
Procedure: as §2, §3

Echinochloa crus galli [28] = assay: Pre-emergent herbicidal action (B.2); conditions: 500 bis 2000 [g/ha], evaluated after 3 weeks
Procedure: as §2, §3

Bromus tectorum [29] = assay: Pre-emergent herbicidal action (B.2); conditions: 500 bis 2000 [g/ha], evaluated after 3 weeks
Procedure: as §2, §3

Sorghum halep. [30] = assay: Pre-emergent herbicidal action (B.2); conditions: 500 bis 2000 [g/ha], evaluated after 3 weeks
Procedure: as §2, §3

Amaranthus ret. [31] = assay: Pre-emergent herbicidal action (B.2); conditions: 500 bis 2000 [g/ha], evaluated after 3 weeks
Procedure: as §2, §3

Digitaria sang. [32] = assay: Pre-emergent herbicidal action (B.2); conditions: 500 bis 2000 [g/ha], evaluated after 3 weeks
Procedure: as §2, §3

Abutilon [33] = assay: Pre-emergent herbicidal action (B.2); conditions: 500 bis 2000 [g/ha], evaluated after 3 weeks
Procedure: as §2, §3

Chrysanthe. leuc. [34] = assay: Pre-emergent herbicidal action (B.2); conditions: 500 bis 2000 [g/ha], evaluated after 3 weeks
Procedure: as §2, §3

CC1CCc2nc(C3=NC(=O)C(C)(C(C)C)N3)c(C(=O)O)cc2C1 (stereo not shown) [Verbindung 2.01, 2-(5-Isopropyl-5-methyl-1H-imidazol-4-on-2-yl)-6-methyl-5,6,7,8-tetrahydrochinolin-3-carbonsäure]
Herbizidwirkung (Veronica Sp. [1]): gute bis sehr gute Herbizidwirkung (Boniturnoten von 1 bis 4 (insbesondere von 1 bis 3) weisen auf eine gute bis sehr gute Herbizidwirkung hin)
Herbizidwirkung (Solanum nigrum [2]): gute bis sehr gute Herbizidwirkung (Boniturnoten von 1 bis 4 (insbesondere von 1 bis 3) weisen auf eine gute bis sehr gute Herbizidwirkung hin)
Herbizidwirkung (Sinapis [3]): gute bis sehr gute Herbizidwirkung (Boniturnoten von 1 bis 4 (insbesondere von 1 bis 3) weisen auf eine gute bis sehr gute Herbizidwirkung hin)
Herbizidwirkung (Stellaria [4]): gute bis sehr gute Herbizidwirkung (Boniturnoten von 1 bis 4 (insbesondere von 1 bis 3) weisen auf eine gute bis sehr gute Herbizidwirkung hin)
Herbizidwirkung (Lolium perenne [5]): gute bis sehr gute Herbizidwirkung (Boniturnoten von 1 bis 4 (insbesondere von 1 bis 3) weisen auf eine gute bis sehr gute Herbizidwirkung hin)
Herbizidwirkung (Avena fatua [6]): gute bis sehr gute Herbizidwirkung (Boniturnoten von 1 bis 4 (insbesondere von 1 bis 3) weisen auf eine gute bis sehr gute Herbizidwirkung hin)
Herbizidwirkung (Galium aparine [7]): gute bis sehr gute Herbizidwirkung (Boniturnoten von 1 bis 4 (insbesondere von 1 bis 3) weisen auf eine gute bis sehr gute Herbizidwirkung hin)
Herbizidwirkung (Chenopodium Sp. [8]): gute bis sehr gute Herbizidwirkung (Boniturnoten von 1 bis 4 (insbesondere von 1 bis 3) weisen auf eine gute bis sehr gute Herbizidwirkung hin)
Herbizidwirkung (Alopecurus myos. [9]): gute bis sehr gute Herbizidwirkung (Boniturnoten von 1 bis 4 (insbesondere von 1 bis 3) weisen auf eine gute bis sehr gute Herbizidwirkung hin)
Herbizidwirkung (Echinochloa crus galli [10]): gute bis sehr gute Herbizidwirkung (Boniturnoten von 1 bis 4 (insbesondere von 1 bis 3) weisen auf eine gute bis sehr gute Herbizidwirkung hin)
Herbizidwirkung (Xanthium Sp.): gute bis sehr gute Herbizidwirkung (Boniturnoten von 1 bis 4 (insbesondere von 1 bis 3) weisen auf eine gute bis sehr gute Herbizidwirkung hin)
Herbizidwirkung (Bromus tectorum [11]): gute bis sehr gute Herbizidwirkung (Boniturnoten von 1 bis 4 (insbesondere von 1 bis 3) weisen auf eine gute bis sehr gute Herbizidwirkung hin)
Herbizidwirkung (Sorghum halep. [12]): gute bis sehr gute Herbizidwirkung (Boniturnoten von 1 bis 4 (insbesondere von 1 bis 3) weisen auf eine gute bis sehr gute Herbizidwirkung hin)
Herbizidwirkung (Amaranthus ret. [13]): gute bis sehr gute Herbizidwirkung (Boniturnoten von 1 bis 4 (insbesondere von 1 bis 3) weisen auf eine gute bis sehr gute Herbizidwirkung hin)
Herbizidwirkung (Digitaria sang. [14]): gute bis sehr gute Herbizidwirkung (Boniturnoten von 1 bis 4 (insbesondere von 1 bis 3) weisen auf eine gute bis sehr gute Herbizidwirkung hin)
Herbizidwirkung (Abutilon [15]): gute bis sehr gute Herbizidwirkung (Boniturnoten von 1 bis 4 (insbesondere von 1 bis 3) weisen auf eine gute bis sehr gute Herbizidwirkung hin)
Herbizidwirkung (Chrysanthe. leuc. [16]): gute bis sehr gute Herbizidwirkung (Boniturnoten von 1 bis 4 (insbesondere von 1 bis 3) weisen auf eine gute bis sehr gute Herbizidwirkung hin)
Toleranz (im Wachstum beeinflusst) (Baumwolle): gute Toleranz (Boniturnoten von 6 bis 9 (insbesondere 7 bis 9) weisen auf eine gute Toleranz (insbesondere bei Kulturpflanzen) hin)
Toleranz (im Wachstum beeinflusst) (Soja [17]): gute Toleranz (Boniturnoten von 6 bis 9 (insbesondere 7 bis 9) weisen auf eine gute Toleranz (insbesondere bei Kulturpflanzen) hin)
Toleranz (im Wachstum beeinflusst) (Soja [18]): gute Toleranz (Boniturnoten von 6 bis 9 (insbesondere 7 bis 9) weisen auf eine gute Toleranz (insbesondere bei Kulturpflanzen) hin)
Herbizidwirkung (Veronica Sp. [19]): gute bis sehr gute Herbizidwirkung (Boniturnoten von 1 bis 4 (insbesondere von 1 bis 3) weisen auf eine gute bis sehr gute Herbizidwirkung hin)
Herbizidwirkung (Ipomoea): gute bis sehr gute Herbizidwirkung (Boniturnoten von 1 bis 4 (insbesondere von 1 bis 3) weisen auf eine gute bis sehr gute Herbizidwirkung hin)
Herbizidwirkung (Solanum nigrum [20]): gute bis sehr gute Herbizidwirkung (Boniturnoten von 1 bis 4 (insbesondere von 1 bis 3) weisen auf eine gute bis sehr gute Herbizidwirkung hin)
Herbizidwirkung (Sinapis [21]): gute bis sehr gute Herbizidwirkung (Boniturnoten von 1 bis 4 (insbesondere von 1 bis 3) weisen auf eine gute bis sehr gute Herbizidwirkung hin)
Herbizidwirkung (Stellaria [22]): gute bis sehr gute Herbizidwirkung (Boniturnoten von 1 bis 4 (insbesondere von 1 bis 3) weisen auf eine gute bis sehr gute Herbizidwirkung hin)
Herbizidwirkung (Lolium perenne [23]): gute bis sehr gute Herbizidwirkung (Boniturnoten von 1 bis 4 (insbesondere von 1 bis 3) weisen auf eine gute bis sehr gute Herbizidwirkung hin)
Herbizidwirkung (Avena fatua [24]): gute bis sehr gute Herbizidwirkung (Boniturnoten von 1 bis 4 (insbesondere von 1 bis 3) weisen auf eine gute bis sehr gute Herbizidwirkung hin)
Herbizidwirkung (Galium aparine [25]): gute bis sehr gute Herbizidwirkung (Boniturnoten von 1 bis 4 (insbesondere von 1 bis 3) weisen auf eine gute bis sehr gute Herbizidwirkung hin)
Herbizidwirkung (Chenopodium Sp. [26]): gute bis sehr gute Herbizidwirkung (Boniturnoten von 1 bis 4 (insbesondere von 1 bis 3) weisen auf eine gute bis sehr gute Herbizidwirkung hin)
Herbizidwirkung (Alopecurus myos. [27]): gute bis sehr gute Herbizidwirkung (Boniturnoten von 1 bis 4 (insbesondere von 1 bis 3) weisen auf eine gute bis sehr gute Herbizidwirkung hin)
Herbizidwirkung (Echinochloa crus galli [28]): gute bis sehr gute Herbizidwirkung (Boniturnoten von 1 bis 4 (insbesondere von 1 bis 3) weisen auf eine gute bis sehr gute Herbizidwirkung hin)
Herbizidwirkung (Bromus tectorum [29]): gute bis sehr gute Herbizidwirkung (Boniturnoten von 1 bis 4 (insbesondere von 1 bis 3) weisen auf eine gute bis sehr gute Herbizidwirkung hin)
Herbizidwirkung (Sorghum halep. [30]): gute bis sehr gute Herbizidwirkung (Boniturnoten von 1 bis 4 (insbesondere von 1 bis 3) weisen auf eine gute bis sehr gute Herbizidwirkung hin)
Herbizidwirkung (Amaranthus ret. [31]): gute bis sehr gute Herbizidwirkung (Boniturnoten von 1 bis 4 (insbesondere von 1 bis 3) weisen auf eine gute bis sehr gute Herbizidwirkung hin)
Herbizidwirkung (Digitaria sang. [32]): gute bis sehr gute Herbizidwirkung (Boniturnoten von 1 bis 4 (insbesondere von 1 bis 3) weisen auf eine gute bis sehr gute Herbizidwirkung hin)
Herbizidwirkung (Abutilon [33]): gute bis sehr gute Herbizidwirkung (Boniturnoten von 1 bis 4 (insbesondere von 1 bis 3) weisen auf eine gute bis sehr gute Herbizidwirkung hin)
Herbizidwirkung (Chrysanthe. leuc. [34]): gute bis sehr gute Herbizidwirkung (Boniturnoten von 1 bis 4 (insbesondere von 1 bis 3) weisen auf eine gute bis sehr gute Herbizidwirkung hin)
